Target: mGluR3 (Homo sapiens, UniProt Q14832)
Assay: HEK293T-mGluR3-Gqi5 Calcium Mobilization Assay
Type: cell-based
Details: HEK293T-mGluR3-Gqi5 stable cell line; FLIPR Ca2+ fluorescence; with L-glutamate at EC20 concentration
Description: II. Biological Assays HEK293T-mGluR3-Gqi5 Calcium Mobilization Assay Reagents: • Cells: HEK293T-mGluR3-Gqi5 Stable Cell Line (MultiSpan cat# CG1190) Culture Medium: • DMEM-GlutaMAX-1 (GIBCO #10566)+10% FBS (dialyzed & heat-inactivated, Hyclone cat# SH 30079.03), 2 mM sodium pyruvate (GIBCO #11360), 1 μg/ml puromycin (GIBCO #0399) and 250 ug/ml hygromycin (GIBCO #10687-010) HBSS (GIBCO #14025), add HEPES at 20 mM for a pH of 7.4 • 384 well cell plate: poly-D-lysine-coated, black/clear bottom microplates (Corning cat#3845) • Ca^2+ dye: FLIPR Ca-4 assay kit (Molecular Devices cat# R8142) • L-Glutamate (Sigma cat #2834) Cell Plating • Plate 8000 cells per well (1×10^5 cells/ml, in 80 μl) in a black, clear bottom, 384 well plate (Corning 3845). Incubate the cell plate for 30 minutes at RT and then incubate the cells 37° C., 5% CO2 for 16-24 hours before the assay. Ca^2+ Assay Using the FLIPR • Wash the cells with HBSS 3 times using the Bravo automated pipettor. The remaining volume of HBSS is 20 μl per well. • Add 20 μl of dye loading solution to each well and incubate the cells at 37° C., 5% CO2 for 1 hour. Prepare Compound Plate: • Serial dilute test compounds in DMSO at a 1:4 ratio, starting at al 0 mM concentration. Transfer 500 nl of the diluted compounds to a Matrix plate and add 30 μl of 37° C. HBSS, by Multidrop, to each well. The final starting concentration of the compounds is 33 uM. Prepare a solution of L-Glutamate in HBSS at 5× the EC20 concentration. Transfer to a 384 well Matrix plate using a Multidrop. The EC20 concentration is determined by a test plate before the screen. Assay: • Ca^2+ fluorescence is measured in the cells using the FLIPR Tetra (Molecular Devices). Following a baseline recording of the wells for 1 minute, add 10 ul of the diluted (5×) compounds to the cell plate and record for 3 minutes.

mGluR3, sequence (Q14832 23-879): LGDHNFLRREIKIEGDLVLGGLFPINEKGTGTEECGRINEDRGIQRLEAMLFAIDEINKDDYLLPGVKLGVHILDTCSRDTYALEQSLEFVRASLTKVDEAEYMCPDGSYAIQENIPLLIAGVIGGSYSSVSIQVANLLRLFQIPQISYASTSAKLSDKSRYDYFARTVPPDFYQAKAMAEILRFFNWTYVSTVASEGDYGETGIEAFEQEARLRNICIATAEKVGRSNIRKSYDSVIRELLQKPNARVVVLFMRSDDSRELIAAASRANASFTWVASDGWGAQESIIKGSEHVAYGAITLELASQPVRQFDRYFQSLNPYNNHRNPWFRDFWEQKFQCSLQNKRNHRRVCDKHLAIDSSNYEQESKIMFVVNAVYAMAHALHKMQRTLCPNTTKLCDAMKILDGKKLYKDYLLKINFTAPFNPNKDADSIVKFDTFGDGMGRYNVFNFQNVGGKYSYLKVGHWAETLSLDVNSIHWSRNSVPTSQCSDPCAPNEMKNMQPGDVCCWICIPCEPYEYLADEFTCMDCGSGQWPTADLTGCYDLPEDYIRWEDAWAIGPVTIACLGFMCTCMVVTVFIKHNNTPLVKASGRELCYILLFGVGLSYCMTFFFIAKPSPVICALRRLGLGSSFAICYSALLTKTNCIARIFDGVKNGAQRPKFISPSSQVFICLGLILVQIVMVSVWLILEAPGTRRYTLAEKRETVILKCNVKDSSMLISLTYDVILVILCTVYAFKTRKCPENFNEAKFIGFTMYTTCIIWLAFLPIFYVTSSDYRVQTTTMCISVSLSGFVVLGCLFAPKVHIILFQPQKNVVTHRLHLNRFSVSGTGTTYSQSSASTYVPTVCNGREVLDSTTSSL

Row | SMILES | EC50
1 | CC(C)c1nc(N2CCOCC2)c(C#N)c2c1CCCC2 [Compound 1, 1-Isopropyl-3-morpholin-4-yl-5,6,7,8-tetrahydroisoquinoline-4-carbonitrile] | < 1000 nM
2 | CCCc1nc(N2CCOCC2)c(C#N)c2c1COC(C)(C)C2 [Compound 2] | 1000 to 10000 nM
3 | CCc1nc(N2CCOCC2)c(C#N)c2c1CCCC2 [Compound 3] | 1000 to 10000 nM
4 | N#Cc1ccc(-c2ccccc2)nc1N1CCOCC1 [Compound 4] | 1000 to 10000 nM
5 | CCCc1nc(NCCN2CCOCC2)c(C#N)c2c1CCCC2 [Compound 5] | 1000 to 10000 nM
6 | CCCc1nc(NCCO)c(C#N)c2c1CCCC2 [Compound 6] | 1000 to 10000 nM
7 | CCc1nc(NCCCO)c(C#N)c2c1CCCC2 [Compound 7] | 1000 to 10000 nM
8 | CCc1nc(NCCN)c(C#N)c2c1CSC(C)(C)C2 [Compound 8] | 1000 to 10000 nM
